{"source": "PubChem BioAssay AID2060499", "about": "(Molecular Pharmacology Branch, DTP, NCI, 2025);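 also: spheroids exposed to compounds for 7 days before readout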", "tested_on": "777334-354-R2-J4-PDC tumor spheroids with HUVEC/MSC, viability", "test": "Anticancer human tumor 777334-354-R2-J4-PDC patient-derived pancreatic adenocarcinoma cell line growth inhibition [GQUAD]", "settings": "for IC50: curve of first compound; for viability, T/C: stronger effect = lower value", "description": "DNA G-quadruplex Stabilizer Agents in Combinations in Complex Spheroids\nA high-throughput screen of multi-cell type tumor spheroids was designed to identify active combinations of DNA G-quadruplex stabilizer agents and targeted small molecules. Complex spheroids include a stromal component modeled by human endothelial cells (HUVEC) and fibroblasts modeled by human mesenchymal stem cells (MSCs). The concentration ranges selected for each drug and investigational agent were based upon clinically achievable concentrations if the clinical Cmax of the agent was known.\nCompounds. The drugs and investigational agents: pidnarulex (CX-5461; NSC782164), APTO-253 (NSC789042), BRACO-19 (NSC847499), peposertib (NSC802822), ceralasertib (NSC780249), elimusertib (NSC800525), camonsertib (NSC841442), AZD-1390 (NSC803789), olaparib (NSC753686), talazoparib (NSC767125), ART-558 (NSC835418), sotorasib (NSC818433), MRTX-1133 (NSC836407), SN-38 (NSC673596), topotecan (NSC609699), etoposide (NSC141540), doxorubicin (NSC123127), gemcitabine (NSC613327), 5-fluorouracil (NSC19893), paclitaxel (NSC125973), vemurafenib (NSC761431), panobinostat (NSC761190), R-306465 (JNJ-16241199; NSC773264), adavosertib (NSC754352), TP-3654 (NSC805149), carboplatin (NSC241240), KSQ-4279 (NSC840948), and staurosporine (NSC755774) were obtained from the National Cancer Institute (NCI) Developmental Therapeutics Program Chemical Repository (34). The FDA-approved anticancer drug set is available from the NCI Developmental Therapeutics Program. […] The stock solutions were prepared in dimethyl sulfoxide (DMSO, Sigma-Aldrich, St. Louis, MO, cat. D2650) at 800-fold the tested concentration and stored at -70 degrees C prior to their use. All drugs and investigational agents were tested over a range starting from a high concentration at or near the clinical Cmax and decreasing in half-log increments. If the clinical Cmax for an agent had not been determined, the highest concentration tested was 10 microM.\n2.3 Cell Culture. All cells were maintained in an incubator at 37 degrees C and 5% CO2 with 95% humidity. The PDC lines were cultured according to standard operating procedures established by the NCI PDMR. All PDCs were thawed and cultured in Matrigel-coated flasks prepared with a working solution of 1X Ham's F-12 nutrient mix, without supplementation (Invitrogen, cat. 11765054), 100 U/mL penicillin-streptomycin (Invitrogen, cat. 15140122), and 2.5% Matrigel (Corning Inc., cat. 354248) for the first three passages. The 857933-349-R-J2-PDC line was cultured in 6C/Colon 1B media, which includes advanced DMEM/F-12 (Thermo Fisher Scientific, cat. 12634028), 10 mM HEPES (Thermo Fisher Scientific, cat. 15630080), 1X GlutaMAX supplement (Thermo Fisher Scientific, cat. 35050061), 0.1 mg/mL primocin (InvivoGen, cat. ant-pm-2), 10% defined fetal bovine serum, heat inactivated (HyClone Laboratories Inc., cat. SH30070.03HI), 50% L-WRN conditioned media (ATCC, cat. CRL-3276), 1.25 mM N-Acetyl-L-cysteine (Sigma-Aldrich, cat. A9165), 10 mM nicotinamide (Sigma-Aldrich, cat. N0636), 1X B-27 supplement (Thermo Fisher Scientific, cat. 17504044), 1X N-2 supplement (Thermo Fisher Scientific, cat. 17502048), 10 microM Y-27632 dihydrochloride (Tocris Bioscience, cat. 1254), and 50 ng/mL human EGF recombinant protein (Thermo Fisher Scientific, cat. PHG0311). The 485176-168-R4-J1-PDC line was cultured in Panc media, which includes all 6C/Colon 1B media components plus 100 ng/mL human FGF-10 (Thermo Fisher Scientific, cat. 100-26), 500 nM SB-431542 (Selleckchem, cat. S1067), and gastrin (Tocris, cat. 3006).\n[…]", "data": [{"smiles": "C=CCn1c(=O)c2cnc(Nc3ccc(N4CCN(C)CC4)cc3)nc2n1-c1cccc(C(C)(C)O)n1", "note": "+ Cc1cnc(CNC(=O)c2c(=O)c3ccc(N4CCCN(C)CC4)nc3n3c2sc2ccccc23)cn1", "values": [{"measurement": "IC50", "setting": "second compound 0.0316 µM", "value": 619, "unit": "nM"}, {"measurement": "IC50", "setting": "second compound 0.1 µM", "value": 299, "unit": "nM"}, {"measurement": "IC50", "setting": "second compound 0.316 µM", "value": 400, "unit": "nM"}, {"measurement": "IC50", "setting": "second compound 1 µM", "value": 360, "unit": "nM"}, {"measurement": "IC50", "setting": "second compound 3.16 µM", "value": 162, "unit": "nM"}, {"measurement": "IC50", "setting": "second compound 10 µM", "value": 68.3, "unit": "nM"}, {"measurement": "viability, T/C", "setting": "second compound 0.0316 µM, first compound 0.0316 µM", "value": 88.6, "unit": "%"}, {"measurement": "viability, T/C", "setting": "second compound 0.0316 µM, first compound 0.1 µM", "value": 75.3, "unit": "%"}, {"measurement": "viability, T/C", "setting": "second compound 0.0316 µM, first compound 0.316 µM", "value": 64.8, "unit": "%"}, {"measurement": "viability, T/C", "setting": "second compound 0.0316 µM, first compound 1 µM", "value": 37.5, "unit": "%"}, {"measurement": "viability, T/C", "setting": "second compound 0.0316 µM, first compound 3.16 µM", "value": 37.9, "unit": "%"}, {"measurement": "viability, T/C", "setting": "second compound 0.0316 µM, first compound 10 µM", "value": 38.4, "unit": "%"}, {"measurement": "viability, T/C", "setting": "second compound 0.1 µM, first compound 0.0316 µM", "value": 78.4, "unit": "%"}, {"measurement": "viability, T/C", "setting": "second compound 0.1 µM, first compound 0.1 µM", "value": 67.8, "unit": "%"}, {"measurement": "viability, T/C", "setting": "second compound 0.1 µM, first compound 0.316 µM", "value": 50.2, "unit": "%"}, {"measurement": "viability, T/C", "setting": "second compound 0.1 µM, first compound 1 µM", "value": 37, "unit": "%"}, {"measurement": "viability, T/C", "setting": "second compound 0.1 µM, first compound 3.16 µM", "value": 37, "unit": "%"}, {"measurement": "viability, T/C", "setting": "second compound 0.1 µM, first compound 10 µM", "value": 38.5, "unit": "%"}, {"measurement": "viability, T/C", "setting": "second compound 0.316 µM, first compound 0.0316 µM", "value": 73, "unit": "%"}, {"measurement": "viability, T/C", "setting": "second compound 0.316 µM, first compound 0.1 µM", "value": 72.1, "unit": "%"}, {"measurement": "viability, T/C", "setting": "second compound 0.316 µM, first compound 0.316 µM", "value": 52.6, "unit": "%"}, {"measurement": "viability, T/C", "setting": "second compound 0.316 µM, first compound 1 µM", "value": 39.8, "unit": "%"}, {"measurement": "viability, T/C", "setting": "second compound 0.316 µM, first compound 3.16 µM", "value": 39.5, "unit": "%"}, {"measurement": "viability, T/C", "setting": "second compound 0.316 µM, first compound 10 µM", "value": 40.5, "unit": "%"}, {"measurement": "viability, T/C", "setting": "second compound 1 µM, first compound 0.0316 µM", "value": 65.2, "unit": "%"}, {"measurement": "viability, T/C", "setting": "second compound 1 µM, first compound 0.1 µM", "value": 64.4, "unit": "%"}, {"measurement": "viability, T/C", "setting": "second compound 1 µM, first compound 0.316 µM", "value": 51.2, "unit": "%"}, {"measurement": "viability, T/C", "setting": "second compound 1 µM, first compound 1 µM", "value": 40.6, "unit": "%"}, {"measurement": "viability, T/C", "setting": "second compound 1 µM, first compound 3.16 µM", "value": 42.4, "unit": "%"}, {"measurement": "viability, T/C", "setting": "second compound 1 µM, first compound 10 µM", "value": 38.2, "unit": "%"}, {"measurement": "viability, T/C", "setting": "second compound 3.16 µM, first compound 0.0316 µM", "value": 62.8, "unit": "%"}, {"measurement": "viability, T/C", "setting": "second compound 3.16 µM, first compound 0.1 µM", "value": 56.3, "unit": "%"}, {"measurement": "viability, T/C", "setting": "second compound 3.16 µM, first compound 0.316 µM", "value": 44.5, "unit": "%"}, {"measurement": "viability, T/C", "setting": "second compound 3.16 µM, first compound 1 µM", "value": 37.3, "unit": "%"}, {"measurement": "viability, T/C", "setting": "second compound 3.16 µM, first compound 3.16 µM", "value": 39.1, "unit": "%"}, {"measurement": "viability, T/C", "setting": "second compound 3.16 µM, first compound 10 µM", "value": 35.1, "unit": "%"}, {"measurement": "viability, T/C", "setting": "second compound 10 µM, first compound 0.0316 µM", "value": 57.3, "unit": "%"}, {"measurement": "viability, T/C", "setting": "second compound 10 µM, first compound 0.1 µM", "value": 46.8, "unit": "%"}, {"measurement": "viability, T/C", "setting": "second compound 10 µM, first compound 0.316 µM", "value": 38.6, "unit": "%"}, {"measurement": "viability, T/C", "setting": "second compound 10 µM, first compound 1 µM", "value": 32.6, "unit": "%"}, {"measurement": "viability, T/C", "setting": "second compound 10 µM, first compound 3.16 µM", "value": 36.7, "unit": "%"}, {"measurement": "viability, T/C", "setting": "second compound 10 µM, first compound 10 µM", "value": 27.8, "unit": "%"}]}]}
